{
  "source": "patent US8293240B2",
  "about": "“Method of treating drug-resistant cancer” (The Regents of the University of Colorado, priority 2004, dated 2012)",
  "key": {"[1]": {"system": "human leukemia HL60 cells", "experiment": "DCFDA staining, HL60", "type": "cell-based", "settings": "HL60, 24 hours of incubation, FIG. 14", "method": "Flow Cytometry. Cells were harvested, counted, and resuspended at 10^6 cells/100 μl of PBS containing 2.5% fetal calf serum in preparation for flow cytometric analysis. Cells were stained for intracellular H202 using 6-carboxy-2′,7′-dichlorodihydrofluorescein diacetate (DCF-DA, Molecular Probes, Eugene, Oreg.). Briefly, cells were incubated at 37° with 1 mM DCF-DA for 20 minutes, washed twice in PBS containing 2.5% fetal calf serum and analyzed flow cytometrically. Mitochondrial membrane potential was assessed using Mitotracker Red (CM-H2XROS, Molecular Probes, Eugene, Oreg.). The cells were resuspended in PBS containing 2.5% fetal calf serum containing a final concentration of 0.5 micromolar Mitotracker dye. The cells were incubated at 37° for 20 minutes, washed twice in PBS containing 2.5% fetal calf serum and analyzed flow cytometrically. Data were acquired on a Coulter Elite Epics or Excel flow cytometer (Coulter, Hialeah, Fla.) and analyzed with CellQuest software, (Becton Dickinson, San Jose, Calif.). […] Each sample population was classified for cell size (forward scatter) and complexity (side scatter), gated on a population of interest and evaluated using 5,000 cells. […]\nThe effects of etomoxir on human leukemia HL60 cells was determined. […]"}, "[2]": {"system": "B16F1 melanoma cells", "experiment": "intracellular reactive intermediates (DCFDA) in B16F1 melanoma cells", "type": "cell-based, mouse", "settings": "B16F1, 48 hours, FIG. 19", "method": "(§1) Metabolic Activity Assay. Cells were prepared as previously described. The specific metabolic dye was added and mixed into the cell suspension. This plate was then placed into the 37° incubator for a 20-minute incubation. After incubation, the cells were centrifuged at 300×g for 5 minutes, and the supernatant was removed. The cells were then washed once with PBS/2.5% FBS and transferred into flow cytometric tubes containing 500 μL of PBS/2.5% FBS for analysis.\n5-(and -6)-Chloromethyl-2′,7′-dichlorodihydrofluorescein diacetate (CMH2DCFDA) (Molecular Probes). One vial of DCFda provides 10 tests and contains 50 μg. This is unstable and can't be stored. Therefore, each vial was opened and 43 μL of DMSO was added. […]\n(§2) B16F1 melanoma cells were cultured at a concentration of 0.5 to 1 million cells per ml. Cells were harvested and analyzed by flow cytometry. […] Five thousand cells were assessed for forward scatter (FS), as a function of cell size, versus side scatter (SS), as a function of cellular granularity. […]\nB16F1 melanoma cells of Example 12 were untreated or treated with etomoxir at the indicated concentrations for 48 hours. Cells were harvested, stained with DCFDA as described in Materials and Methods, and analyzed by flow cytometry. The value of DCFDA was then calculated as described in Materials and Methods."}, "[3]": {"system": "B16F1 melanoma cells", "experiment": "mitochondrial membrane potential (Mitotracker Red) in B16F1 melanoma cells", "type": "cell-based, mouse", "settings": "B16F1, 48 hours, FIG. 20", "method": "as §1\nMitoTracker Red CM-H2XROS (Molecular Probes). One vial of MitoTracker Red provides 10 tests and contains 50 μg. This is unstable and can't be stored. Therefore, when each vial was opened, 43 μL of Dimethysulfoxide (DMSO) were added. […]\nas §2\nB16F1 melanoma cells of Example 12 were untreated or treated with etomoxir at the indicated concentrations for 48 hours. Cells were harvested, stained with Mitotracker Red (Molecular Probes) as described in Materials and Methods, and analyzed by flow cytometry. The value of Mitotracker Red was then calculated as described in Materials and Methods."}, "[4]": {"system": "A-204 human rhabdomyosarcoma cells", "experiment": "cell surface UCP2 expression on A-204 cells", "type": "cell-based", "settings": "A-204, 24, 48, & 72 hours, FIG. 26", "method": "Cell Surface Staining. Non-permeabilized cells were stained with antibodies to the cell surface receptors Fas (CD95) (Pharmingen) or with antibodies to uncoupling proteins (anti-UCP2 antibody) (Alpha Diagnostic International). Antibodies for both the isotype control and actual stain were added to the cell suspension, mixed, and then placed on ice for and incubation of 25 minutes in the dark. Subsequently the cells were centrifuged at 300×g for 5 minutes and the supernatant removed. The cells were washed one time with 100 μL of PBS/2.5% FBS and then transferred into flow cyotmetric tubes containing 500 μL of PBS/2.5% FBS for analysis.\nA204 human rhabdomyosarcoma cells were cultured at a concentration of 0.5 to 1 million cells per ml. Cells were untreated or treated with etomoxir at concentrations indicated in FIG. 24 for 24, 48, & 72 hours. Cells were harvested and analyzed by flow cytometry. Dot plots are shown in FIG. 24 as functions of live versus dead cells. […] Five thousand cells were assessed for forward scatter (FS), as a function of cell size, versus side scatter (SS), as a function of cellular granularity. […]\nCells were untreated or treated with etomoxir at the concentration indicated in FIG. 26 at the indicated concentration for 24, 48, & 72 hours. Cells were harvested, stained with fluorochrome conjugated with anti-UCP2 antibody and analyzed by flow cytometry."}, "[5]": {"system": "HL60 MDR human leukemia cells", "experiment": "percent death of HL60 MDR cells (flow cytometry, live versus dead)", "type": "cell-based", "description": "Dot plots as a function of live versus dead cells. The cells were cultured at a concentration of 0.5 to 1 million cells per ml. Cells were untreated or treated with or 2-deoxy-D-glucose and/or etomoxir and/or antibodies to UCP2 and used at dilutions or concentrations as indicated on the figure. The cells were cultured in the presence or absence of etomoxir at 100 micrograms/ml for 24 hours followed by treatment with antibody as indicated for an additional 24 or 48 hours (i.e. totals of 48 hours or 72 hours respectively). Cells were harvested and analyzed by flow cytometry. Each dot on the dot plot represents one cell. Five thousand cells were assessed for forward scatter (FS), as a function of cell size, versus side scatter (SS), as a function of cellular granularity. The upper elipse represents live cells by these criterion and the lower elipse in each dot plot represents the dead cells.\nStatistical Analysis, Percents, and Geometric Mean Values Percents. Gating is a tool provided by Cell Quest software and allows for the analysis of a certain population of cells. Gating around both the live and dead cell populations gave a percent of the cell numbers that was in each population. After the gates were drawn, a percent value of dead cells was calculated by taking the number of dead cells divided by the number of total cells and multiplying by one hundred.\nHL60 MDR human leukemia cells were cultured as described above under “Materials and Methods”. Cells were untreated or treated with etomoxir, with 2-deoxy-D-glucose, or with a combination of etomoxir and 2-deoxy-D-glucose, at concentrations indicated in FIG. 27 for 24 hours. Cells were harvested and analyzed by flow cytometry.\nReferring to FIGS. 31 and 32, HL60 MDR cells, cultured as described in Example 21, were untreated or treated with etomoxir, with 2-deoxy-D-glucose, or with a combination of etomoxir and 2-deoxy-D-glucose, at concentrations indicated in FIG. 31 for 48 hours. Cells were harvested and analyzed by flow cytometry.\nReferring to FIGS. 35 and 36, HL60 MDR cells, cultured as described in Example 21, were treated with anti-UCP2 antibody and otherwise untreated or treated simultaneously with etomoxir, 2-deoxy-D-glucose, or both, at concentrations indicated in FIG. 35 for 48 hours. Cells were harvested and analyzed by flow cytometry."}},
  "data": [
    {"compound": "CCOC(=O)C1(CCCCCCOc2ccc(Cl)cc2)CO1", "note": "(stereo not drawn) [etomoxir, 2-(6-(4-chlorophenoxy)-hexyl)-oxirane-2-carboxylic acid ethyl ester]", "values": [
      {"measurement": "reactive oxygen intermediates, DCFDA staining", "setting": "[1]", "value": "increases in reactive oxygen intermediates"},
      {"measurement": "reactive oxygen species as measured by DCFDA", "setting": "[2]", "value": "dose dependent increase"},
      {"measurement": "mitochondrial membrane potential as measured by Mitotracker Red", "setting": "[3]", "value": "increase in mitochondrial membrane potential"},
      {"measurement": "cell surface UCP2 expression in the live cells", "setting": "[4]", "value": "time dependent “fold” increases"},
      {"measurement": "percent of cell deaths", "setting": "[5]; HL60 MDR cells after 24 hours", "value": 11, "unit": "%"},
      {"measurement": "percent of cell deaths", "setting": "[5]; HL60 MDR cells after 48 hours", "value": 14, "unit": "%"}
    ]}
  ]
}
